Laboratory results taken from patent US20070092551A1, “Therapeutic agent” (TAKARA BIO INC., priority 2003, published 2007).
Where two headings read alike, the source gives them in different places.

Legend:
[1] = system: mature adipocytes (3T3-L1 cells); assay: Enhancing action on glucose uptake (2-deoxyglucose) into mature adipocytes; format: cell-based; conditions: Mus musculus
Description: The induction of differentation into nature adipocytes was carried out by partially modifying the above-mentioned method of Rubin C. S. et al. 3T3-L1 cells (ATCC CCL-92.1) were suspended in a 10% fetal bovine serum (manufactured by Bio Whittaker)-containing Dulbecco's modified Eagle's medium (manufactured by Sigma, D6046) containing 200 μM ascorbic acid so as to have a density of 4×10^3 cells/mL, and the suspension was put in each well of a collagen type I-coated 12-well plate (Iwaki Glass Co., Ltd., code 4815-010) in an amount of 2 mL per well. The cells were cultured at 37° C. for 7 days in the presence of 5% carbon dioxide gas. On the seventh day, the medium was exchanged with 2 mL of a 10% fetal bovine serum (manufactured by Bio Whittaker)-containing Dulbecco's modified Eagle's medium containing 200 μM ascorbic acid, 0.25 μM dexamethasone, 10 μg/mL insulin (manufactured by TAKARA BIO INC.) and 0.5 mM 3-isobutyl-1-methylxanthine (manufactured by nacalai tesque, 19624-86). After 45 hours, the medium was exchanged with 2 mL of a 10% fetal bovine serum-containing Dulbecco's modified Eagle's medium containing 200 μM ascorbic acid and 5 μg/mL insulin. The medium was exchanged on after 2 days and 5 days, and the cells were cultured for 7 days, to give mature adipocytes.
As the evaluation of the enhancing action on glucose uptake, and also as the evaluation of the insulin-mimetic action, the amount of 2-deoxyglucose uptake into mature adipocytes during the stimulation of the test compound in the adipocytes was determined. As a test compound, a compound prepared in the Examples mentioned above or a commercially available compound was used.
After the termination of the culture, the medium was removed, and the cells were washed twice with a 0.1% (w/v) bovine serum albumin (manufactured by Sigma, A8022)-containing Dulbecco's modified Eagle's medium. Thereafter, 1 mL of the same medium containing a test compound in a concentration shown in each of Tables 20 to 23 was put to each well. The cells were cultured overnight at 37° C. in the presence of 5% carbon dioxide gas. Here, a group without containing the test compound was set as a negative control. After the overnight culture, the cells were washed twice with a HEPES buffer (140 mM NaCl, 5 mM KCl, 2.5 mM MgSO4, 1 mM CaCl2, 20 mM HEPES-Na (pH 7.4)). The amount 0.9 mL of the buffer containing a test compound in the same concentration was added to each well. The cells were cultured at 37° C. for 75 minutes. During the culture, as a positive control, there was set a group with addition of insulin to the well without addition of a test compound at a point 45 minutes passed so as to have a final concentration of 1 μg/mL. Thereafter, 100 μL of a HEPES buffer containing 0.5 μCi/mL 2-deoxy-[1,2-^3H(N)]-glucose (manufactured by PerkinElmer Life Sciences Inc., NET549A) and 1 mM 2-deoxyglucose (manufactured by nacalai tesque, 10722-11) was added thereto. The cells were cultured at 37° C. for additional 10 minutes. After the termination of the culture, the supernatant was removed, and the cells were washed three times with a phosphate buffer cooled to 4° C. Thereafter, 0.5 mL of a 1% Nonidet P-40-containing phosphate buffer was added to lyse the cells, whereby 2-deoxy-[1,2-^3H(N)]-glucose subjected to uptake into the cells was eluted. The radioactivity was determined with a liquid scintillation counter LS6500 (manufactured by Beckmann) using 25 μL of the supernatant with Ultima Gold (manufactured by PerkinElmer Life Sciences Inc., 6013329) as a scintillation cocktail. The enhancing action on glucose uptake was calculated by the following calculation formula, and shown by four ranks of +++, ++, + and +/−. • S: Amount of 2-deoxyglucose uptake in the presence of a test compound; • N: Amount of 2-deoxyglucose uptake in the negative control; and • P: Amount of 2-deoxyglucose uptake in the positive control; X=(S−N)/(P−N) (Judgment of Enhancing Action for 2-Deoxyglucose Uptake)

[2] = system: 3T3-L1 cells; assay: Induction of adipocyte differentiation (amount of triglyceride biosynthesis); format: cell-based; conditions: Mus musculus, 3T3-L1, read-out: Action for Induction of Differentiation
Description: Induction of adipocyte differentiation was carried out by partially modifying the above-mentioned method of Rubin C. S. et al. In addition, as a test compound, a compound prepared in Examples mentioned above or a commercially available compound was used. 3T3-L1 cells (ATCC CCL-92.1) were suspended in a 10% fetal bovine serum (manufactured by Bio Whittaker)-containing Dulbecco's modified Eagle's medium (manufactured by Sigma, D6046) containing 200 μM ascorbic acid so as to have a density of 4×10^3 cells/mL, and the suspension was put in each well of a 12-well microtiter plate in an amount of 2 ml per well. The cells were cultured at 37° C. for 7 days in the presence of 5% carbon dioxide gas. On the seventh day, the medium was exchanged with a 10% fetal bovine serum (manufactured by Bio Whittaker)-containing Dulbecco's modified Eagle's medium containing 200 μM ascorbic acid and 0.25 μM dexamethasone, and a test compound dissolved in dimethyl sulfoxide in a concentration shown in each of Tables 16 to 19 was added to each well. Here, there were set a group with addition of 4 μL of an aqueous solution containing 5 mg/mL insulin (manufactured by TAKARA BIO INC.) as a positive control, and a group with addition of dimethyl sulfoxide as a negative control. After 45 hours, the medium was exchanged with a 10% fetal bovine serum-containing Dulbecco's modified Eagle's medium containing 200 μM ascorbic acid. A test compound, 2 μL of an aqueous solution containing 5 mg/mL insulin as a positive control, or dimethyl sulfoxide as a negative control was put to each well in the same concentration. The cells were cultured for additional 7 days. In addition, the medium was exchanged on after 2 days and after 5 days, and at that time, a test compound, 2 μL of an aqueous solution containing 5 mg/mL insulin as a positive control, or dimethyl sulfoxide as a negative control was put to each well in the same concentration.
The amount of triglyceride in the adipocytes was determined as an index of induction of differentiation into mature adipocytes, and also, as the evaluation of insulin-mimetic action.
After the termination of the culture, the medium was removed, and the cells were washed twice with a phosphate buffered saline. One milliliter of a solvent of hexane:isopropanol=3:2 was added to the cells. The mixture was allowed to stand at room temperature for 30 minutes, and thereafter the supernatant was collected. The procedures were repeated again, and 2 mL of the supernatant was concentrated to dryness. The precipitate was dissolved in 100 μL of isopropanol, and the amount of triglyceride contained in 10 μL of the solution was determined using a triglyceride E-test (manufactured by Wako Pure Chemical Industries, Ltd., code 432-40201). In addition, all the determinations were carried out twice. The action for induction of differentiation was calculated by the following calculation formula, and shown by four ranks of +++, ++, + and +/−. • S: Amount of triglyceride in the presence of a test compound; • N: Amount of triglyceride in the negative control; and • P: Amount of triglyceride in the positive control; X=(S−N)/(P−N) (Judgment of Action for Induction of Differentiation)

[3] = 3T3-L1, 30 μM, X=(S−N)/(P−N) of 2-deoxyglucose uptake, P=insulin 1 μg/mL, read-out: Enhancing Action on Glucose Uptake
[4] = 3T3-L1, 10 μM, X=(S−N)/(P−N) of 2-deoxyglucose uptake, P=insulin 1 μg/mL, read-out: Enhancing Action on Glucose Uptake
[5] = 3T3-L1, 3 μM, X=(S−N)/(P−N) of 2-deoxyglucose uptake, P=insulin 1 μg/mL, read-out: Enhancing Action on Glucose Uptake
[6] = 3T3-L1, read-out: Enhancing Action on Glucose Uptake

SMILES | activation at 30 µM [1, 3] [%] | activation at 10 µM [1, 4] [%] | other results
CC(C)=CCC/C(C)=C/CC/C(C)=C/Cc1c(O)ccc(C(=O)/C=C/c2ccc(O)cc2)c1O [Compound (C058), 4,2′,4′-trihydroxy-3′-farnesylchalcone] | > 100 |  | 
COc1c2occc2cc2ccc(=O)oc12 [Xanthotoxin] |  |  | activation at 13 µM [2]: 30 to 60%; activation at 40 µM [2]: 60 to 100%
C/C=C(/C)C(=O)OC1Cc2c(ccc3ccc(=O)oc23)OC1(C)C (stereo not drawn) [Coumarin Compound B, 3′-angeloyloxy-3′,4′-dihydroseselin] | > 100 | > 100 | 
CC(=O)c1ccc(OC2CCCCO2)c(C/C=C(\C)CCC=C(C)C)c1O (stereo not drawn) [Compound (C045), 2′-hydroxy-3′-geranyl-4′-tetrahydropyranyloxyacetophenone] | 30 to 60 | 15 to 30 | 
COc1ccc(C(=O)/C=C/c2ccc(O)cc2)c(O)c1CCC(C)C [Compound (C043), 4,2′-dihydroxy-3′-(3-methylbutyl)-4′-methoxychalcone] |  | > 100 | activation at 3 µM [1, 5]: 15 to 30%
COc1ccc(C(=O)/C=C/c2ccc(O)cc2)c(O)c1C/C=C(\C)CC/C=C(\C)CCC=C(C)C [Compound (C053), 4,2′-dihydroxy-3′-farnesyl-4′-methoxychalcone] | > 100 | > 100 | activation at 3 µM [1, 5]: 30 to 60%
COc1ccc(C=O)c(O)c1 [2-Hydroxy-4-methoxybenzaldehyde] | 30 to 60 | 15 to 30 | 
O=C(/C=C/c1ccc(O)c(O)c1)c1ccccc1O [Compound (C005), 3,4,2′-trihydroxychalcone] | 30 to 60 | 30 to 60 | 
C/C=C(/C)C(=O)OC1C(O)c2c(ccc3ccc(=O)oc23)OC1(C)C (stereo not drawn) [Coumarin Compound C, 3′-angeloyloxy-4′-hydroxy-3′,4′-dihydroseselin] | 30 to 60 |  | 
COc1ccc2c(c1CC=C(C)C)OC(c1ccco1)C(=Cc1ccco1)C2=O (stereo not drawn) [Compound (FUR-2), 2-(2-furyl)-3-(2-furylmethylene)-2,3-dihydro-7-methoxy-8-prenyl-4H-1-benzopyran-4-one] | 30 to 60 | 30 to 60 | activation at 3 µM [1, 5]: 15 to 30%
O=C(/C=C/c1ccc(O)c(O)c1)c1cc(O)ccc1O [Compound (C006), 3,4,2′,5′-tetrahydroxychalcone] |  | 30 to 60 | 
CC(C)=CCCC1(C)C=Cc2c(ccc(C(=O)/C=C/c3ccc(O)cc3)c2O)O1 (stereo not drawn) [Lespeol] | 60 to 100 | 60 to 100 | 
COc1ccc(C(=O)/C=C/c2ccc(O)cc2)c(O)c1CC1C2(C)CCC(O2)C1(C)C (stereo not drawn) [TB7, 1-[3-(2,5-epoxy-2,6,6-trimethyl-cyclohexylmethyl)-2-hydroxy-4-methoxyphenyl]-3-(4-hydroxyphenyl)-2-propen-1-one] | > 100 | > 100 | 
COc1ccc(C(=O)/C=C/c2ccc(OC3CCCCO3)cc2)c(O)c1CC=C(C)C (stereo not drawn) [Compound (C030), 4-tetrahydropyranyloxy-2′-hydroxy-3′-prenyl-4′-methoxychalcone] | > 100 | 30 to 60 | 
O=C(/C=C/c1ccc(O)c(O)c1)c1ccc(Cl)cc1Cl [Compound (C011), 3,4-dihydroxy-2′,4′-dichlorochalcone] | > 100 | 60 to 100 | activation at 3 µM [1, 5]: 15 to 30%
CCCCC1OC(=O)C2=CCCCC21 (stereo not drawn) [Sedanolide] | 60 to 100 | 15 to 30 | 
CCOc1ccc(C(=O)/C=C/c2ccc(O)cc2)c(O)c1C/C=C(\C)CCC=C(C)C [Compound (C050), 4,2′-dihydroxy-3′-geranyl-4′-ethoxychalcone] |  | > 100 | activation at 3 µM [1, 5]: 15 to 30%
COc1ccc(C(=O)/C=C/C=C/c2ccccc2)c(O)c1CC=C(C)C [Compound (C-CIN), 1-(2-hydroxy-4-methoxy-3-prenylphenyl)-5-phenyl-2,4-pentadien-1-one] | > 100 | 15 to 30 | activation at 3 µM [1, 5]: 15 to 30%
CC(=O)c1cc(CC=C(C)C)c(O)cc1O [Compound (C025), 2′,4′-dihydroxy-5′-prenylacetophenone] | 30 to 60 | 15 to 30 | 
COc1ccc(C(=O)/C=C/c2ccc(O)c(O)c2)c(O)c1CC=C(C)C [Compound (C031), 3,4,2′-trihydroxy-3′-prenyl-4′-methoxychalcone] | > 100 | 15 to 30 | 
C/C=C(/C)C(=O)OC1c2c(ccc3ccc(=O)oc23)OC(C)(C)C1OC(C)=O (stereo not drawn) [Coumarin Compound A, 3′-acetoxy-4′-angeloyloxy-3′,4′-dihydroseselin] | > 100 | > 100 | 
CCC/C=C1\OC(=O)c2ccccc21 [n-Butylidenephthalide] |  |  | activation at 3 µM [1, 6]: 30 to 60%; activation at 10 µM [1, 6]: 60 to 100%; activation at 30 µM [1, 6]: > 100%
O=C(/C=C/c1ccccc1)c1ccccc1 [Chalcone] | 30 to 60 | 30 to 60 | 
